These results are taken from ChEMBL document CHEMBL1201862, “PubChem BioAssay data set” (2004).

Molecules are shown by their SMILES.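 Five compound concentrations were applied to cells in 96-well plates for 48 hours; endpoints were derived by simple linear interpolation of the resulting dose-response curve. Here, GI50 denotes the concentration required for 50% inhibition of growth.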 The source made the active and inactive calls. Cut-off read from the data, not from the text of the source: active = GI50 up to about 1.1 µM and inactive = higher. A value given as a limit tells only on which side of the number the result lay.

Some test systems named below: RPMI-8226; TK-10; SF-539; UACC-62; A549; Malme-3M; SW-620; LOX IMVI; NCI-H460; SK-MEL-2; COLO 205; HT-29; SK-MEL-28; OVCAR-5; SF-268; HL-60; SR.
Assay in all cases: inhibition of tumour cell growth, NCI panel, 48 h

Regarding `CCC1=C(C)/C(=C/c2[nH]c(CBr)c(CC)c2C)N=C1CBr`, the GI50 with RPMI-8226 is 5.66 µM (inactive); in the assay with TK-10, 18.4 µM (inactive); with SF-539 it was 18.7 µM (inactive); in the assay on UACC-62, 6.05 µM (inactive); in the assay with A549 it was 18.4 µM (inactive); in the assay with Malme-3M, 20.7 µM (inactive). Besides, the GI50 is 12.2 µM (inactive) in the assay on SW-620; > 100 µM (inactive) in the assay with LOX IMVI; 19 µM (inactive) in the assay with NCI-H460; 22.2 µM (inactive) in the assay with SK-MEL-2; 11.3 µM (inactive) in the assay with COLO 205; 12.5 µM (inactive) in the assay with HT-29. The GI50 in the assay with SK-MEL-28 is 15.6 µM (inactive); with OVCAR-5 it was > 10 µM (inactive); in the assay with SF-268, 13.7 µM (inactive); in the assay with HL-60, 4.59 µM (inactive).
As to `CN1C(c2ccccc2)CC(=Nc2ccccc2)CC1c1ccccc1` (stereo unspecified), the GI50 with RPMI-8226 is 2.98 µM (inactive); with TK-10, 19.2 µM (inactive); in the assay with SR, 10.9 µM (inactive); with A549, 11.5 µM (inactive); in the assay with Malme-3M, 10.8 µM (inactive); in the assay on SW-620, 10.8 µM (inactive). Further, the GI50 was 4.48 µM (inactive) in the assay on LOX IMVI; 13.5 µM (inactive) with NCI-H460; 10.7 µM (inactive) in the assay with COLO 205; 8.67 µM (inactive) with HT-29; 10.8 µM (inactive) in the assay on SK-MEL-28; 10.8 µM (inactive) in the assay with SF-268. Further, the GI50 in the assay on HL-60 was 2.61 µM (inactive).
For the compound `CCc1ccccc1NC(=O)C1=C(C)NC(C)=C(C(=O)Nc2ccccc2CC)C1c1ccccc1Cl`, the GI50 in the assay on RPMI-8226, in the assay on TK-10, with SF-539, with A549, in the assay with Malme-3M and with SW-620 was > 100 µM (inactive) throughout. The GI50 in the assay on LOX IMVI, in the assay with NCI-H460, with SK-MEL-2, with COLO 205, in the assay on HT-29 and with SK-MEL-28 was > 100 µM (inactive) each time. Also, the figures for the GI50 in the assay with OVCAR-5, in the assay with SF-268 and with HL-60 were > 100 µM (inactive), > 100 µM (inactive) and 64.6 µM (inactive), respectively.
On to `COc1cccc(-n2c3nc(=O)n(C)c(=O)c-3nc3ccccc32)c1`, for which the GI50 in the assay with RPMI-8226 was 12.5 µM (inactive); with TK-10 it was 45.6 µM (inactive); in the assay on SF-539, 12.4 µM (inactive); in the assay on UACC-62, 4.06 µM (inactive); in the assay with A549 it was 12.6 µM (inactive); with Malme-3M it was 14.3 µM (inactive). For the same compound, the GI50 in the assay with SW-620 is 5.09 µM (inactive); in the assay on NCI-H460, 5.46 µM (inactive); with SK-MEL-2, 19.6 µM (inactive); in the assay on COLO 205 it was 3.5 µM (inactive); in the assay on HT-29 it was 4.55 µM (inactive); in the assay on SK-MEL-28, 22.1 µM (inactive). For the same compound, the figures for the GI50 with OVCAR-5, in the assay on SF-268 and in the assay on HL-60 were 19.2 µM (inactive), 16.7 µM (inactive) and 6.01 µM (inactive), respectively.
In the case of `CCOc1ccc(OCC)c([P+](c2ccccc2)(c2ccccc2)c2ccccc2)c1`, the GI50 in the assay with RPMI-8226 was 0.286 µM (active); with TK-10, 0.495 µM (active); in the assay on SF-539 it was 0.685 µM (active); with UACC-62, 0.792 µM (active); in the assay with A549 it was 0.443 µM (active); with Malme-3M, 1.28 µM (inactive). For the same compound, the GI50 in the assay with SW-620 was 0.44 µM (active); with LOX IMVI, 0.35 µM (active); in the assay on NCI-H460 it was 0.383 µM (active); in the assay with COLO 205, 0.299 µM (active); in the assay on HT-29, 0.315 µM (active); in the assay with SK-MEL-28 it was 0.818 µM (active). The GI50 with OVCAR-5 is 0.407 µM (active); in the assay on SF-268 it was 0.617 µM (active); with HL-60, 0.114 µM (active).
In the case of `O=C1C(=O)N(c2ccc(Cl)c(Cl)c2)C(=O)C(=O)C1c1nc2ccccc2s1`, the GI50 with RPMI-8226, in the assay with TK-10, with SR, in the assay with SF-539, with UACC-62 and in the assay with A549 was > 100 µM (inactive) each time. For the same compound, the GI50 with Malme-3M, with SW-620, in the assay with LOX IMVI, with SK-MEL-2, in the assay with COLO 205 and in the assay on HT-29 was > 100 µM (inactive) throughout. The GI50 with SK-MEL-28, in the assay with OVCAR-5 and with SF-268 was > 100 µM (inactive) in each case.
Turning to `CCOC(=O)C(Sc1ccccc1)c1c(OC)cc(=O)oc1/C=[N+](/[O-])c1ccc(N(C)C)cc1` (stereo unspecified), the GI50 is 19.6 µM (inactive) in the assay with RPMI-8226; 35 µM (inactive) in the assay on TK-10; 24.4 µM (inactive) in the assay on SF-539; 22.6 µM (inactive) in the assay on UACC-62; 28.4 µM (inactive) in the assay with A549; 17.2 µM (inactive) in the assay on Malme-3M. The GI50 in the assay on SW-620 is 14.7 µM (inactive); in the assay with LOX IMVI it was 13.4 µM (inactive); with NCI-H460 it was 27.9 µM (inactive); with SK-MEL-2, 24.9 µM (inactive); in the assay with COLO 205, 22.4 µM (inactive); in the assay on HT-29, 16.3 µM (inactive). Also, the GI50 is 17.5 µM (inactive) in the assay with SK-MEL-28, 46 µM (inactive) in the assay on OVCAR-5 and 31.5 µM (inactive) in the assay with SF-268.
Take `CN(C)CC1CCC/C1=N/OC(=O)c1ccccc1` (stereo unspecified): the GI50 with RPMI-8226, in the assay on TK-10, with SR, in the assay on SF-539, in the assay with UACC-62 and in the assay on SW-620 was > 100 µM (inactive) throughout. The GI50 in the assay with LOX IMVI, with NCI-H460, in the assay with SK-MEL-2, in the assay with COLO 205, in the assay on HT-29 and in the assay with SK-MEL-28 was > 100 µM (inactive) each time. The GI50 in the assay on OVCAR-5 and in the assay on SF-268 was > 100 µM (inactive) in each case.
Take `Cc1nc2c(=O)n(C)c(=O)nc-2n(-c2ccc(Cl)cc2)c1C`: the GI50 in the assay on TK-10 is > 100 µM (inactive); in the assay on SF-539, > 100 µM (inactive); with UACC-62, 43.9 µM (inactive); with A549 it was > 100 µM (inactive); in the assay on Malme-3M, > 100 µM (inactive); in the assay on SW-620 it was > 100 µM (inactive). Besides, the GI50 in the assay on NCI-H460, in the assay with SK-MEL-2, with COLO 205, in the assay on HT-29, in the assay on SK-MEL-28 and in the assay on OVCAR-5 was > 100 µM (inactive) each time. For the same compound, the GI50 with SF-268 was > 100 µM (inactive); with HL-60, 45.3 µM (inactive).
In the case of `O=C(Nc1ccccc1-c1nn(CN2CCNCC2)c(=S)n(CN2CCNCC2)c1=O)C(F)(F)F`, the GI50 was 27.5 µM (inactive) in the assay with TK-10; 18.4 µM (inactive) with SF-539; 18.3 µM (inactive) in the assay with UACC-62; 22.3 µM (inactive) in the assay with A549; 17.9 µM (inactive) with Malme-3M; 10.1 µM (inactive) with SW-620. Also, the GI50 with LOX IMVI was 18.8 µM (inactive); with NCI-H460, 20.5 µM (inactive); with SK-MEL-2, 19.4 µM (inactive); in the assay on COLO 205, 17.1 µM (inactive); in the assay with HT-29 it was 23.4 µM (inactive); in the assay with SK-MEL-28, 18.9 µM (inactive). The GI50 in the assay with OVCAR-5 is 22.9 µM (inactive); with SF-268, 21.4 µM (inactive); in the assay on HL-60, 16.4 µM (inactive).
For the compound `C[Si](C)(C)[C@@]1([Se]c2ccccc2)CC[C@@H]1C(=O)c1ccccc1`, the GI50 with RPMI-8226 was 20.1 µM (inactive); with TK-10, > 100 µM (inactive); with SF-539, 62.7 µM (inactive); in the assay with UACC-62 it was 71.4 µM (inactive); in the assay with A549, 56.2 µM (inactive); in the assay with Malme-3M, 70 µM (inactive). In addition, the GI50 with SW-620 is 53 µM (inactive); with LOX IMVI, 35.9 µM (inactive); with NCI-H460 it was 98.9 µM (inactive); in the assay with SK-MEL-2, 23.7 µM (inactive); in the assay with COLO 205, > 100 µM (inactive); in the assay with HT-29, 42.3 µM (inactive). Besides, the GI50 was 55.2 µM (inactive) in the assay with SK-MEL-28, > 100 µM (inactive) in the assay on OVCAR-5 and 28.8 µM (inactive) in the assay on SF-268.
Take `CC12O[Te]34OC1(C)C(C)(O3)C2(C)O4`: the GI50 in the assay with TK-10 was 17 µM (inactive); with SR, 7.66 µM (inactive); in the assay with SF-539, 15.9 µM (inactive); in the assay with UACC-62, 30.1 µM (inactive); with A549 it was 12.3 µM (inactive); in the assay with Malme-3M it was 18.1 µM (inactive). Further, the GI50 is 14.8 µM (inactive) with SW-620; 3.56 µM (inactive) with LOX IMVI; 15.3 µM (inactive) with NCI-H460; 15.7 µM (inactive) with SK-MEL-2; 16.9 µM (inactive) in the assay on COLO 205; 13.2 µM (inactive) in the assay on HT-29. In addition, the GI50 in the assay on SK-MEL-28 was 12 µM (inactive); in the assay with OVCAR-5, 12.2 µM (inactive); with SF-268, 11.8 µM (inactive).
For the compound `O=C(CC1(O)C(=O)Nc2c(Cl)cccc21)c1ccccc1` (stereo unspecified), the GI50 in the assay on RPMI-8226 was 49.3 µM (inactive); with TK-10 it was > 100 µM (inactive); in the assay on A549, > 100 µM (inactive); with Malme-3M it was > 100 µM (inactive); in the assay with SW-620 it was 76.4 µM (inactive); in the assay on LOX IMVI, > 100 µM (inactive). For the same compound, the GI50 was > 100 µM (inactive) in the assay on NCI-H460; > 100 µM (inactive) with SK-MEL-2; > 100 µM (inactive) in the assay with COLO 205; 84.7 µM (inactive) in the assay on HT-29; > 100 µM (inactive) in the assay on SK-MEL-28; > 100 µM (inactive) in the assay with OVCAR-5. The GI50 in the assay with SF-268 and in the assay on HL-60 was > 100 µM (inactive) throughout.
